With `CCN1CCN(c2ccc(Nc3cc(N(C)C(=O)Nc4cc(OC)c(Cl)c(C(F)(F)F)c4Cl)ncn3)cc2)CC1` [Example 25, 3-(2,4-Dichloro-5-methoxy-3-trifluoromethyl-phenyl)-1-{6-[4-(4-ethyl-piperazin-1-yl)-phenylamino]-pyrimidin-4-yl}-1-methyl-urea] the melting point was 143 to 144 °C.

— patent publication US8293746B2, “Pyrimidinyl aryl urea derivatives being FGF inhibitors” (Novartis AG, priority 2005, dated 2012)
